In brackets after ≈: the same amount, converted by molar mass.
Experiments:
[1] = Tobacco root assay for phytotoxicity (in vitro root elongation); conditions: 7 days, 27° C., read-out: Tob. EC50
Protocol: The compounds of Examples 1-20 were tested in vitro for fungicidal activity and phytotoxicity.
B. The compounds were tested in vitro for phytotoxicity in a tobacco root elongation assay.
Tobacco root assay for Phytotoxicity:
A dilution series of test compound was prepared in dimethylsulfoxide and 20 ul of each dilution was added to 20 ml of molten nutrient medium, consisting of Murashige and Skoog salt base, 2% sucrose and 1% agar, to give the desired concentrations of test compound. The mixtures were poured immediately into 9 cm diameter petri dishes. Surface-sterilized tobacco seeds were placed on each plate (20 seeds per plate) and the plates incubated in a vertical position in a 27° C. incubator with a 16 hour photoperiod. After 7 days the mean root lengths were calculated, and EC50 values determined from dose response curves.
Results of the tobacco root assay are set forth below in Table 3 as Tob. EC50 (ppm).

Botrytis cinerea = experiment: Fungitoxicity assay against Botrytis cinerea (in vitro, colony diameter); type: cell-based; conditions: 48 hours at 25° C., read-out: Botrytis EC50
Protocol: The compounds of Examples 1-20 were tested in vitro for fungicidal activity and phytotoxicity. A. The compounds were tested in vitro for fungicidal activity against Pythium ultimum, Botrytis cinerea and Venturia inaequalis. Fungitoxicity assay against Botrytis cinerea: […] The mixtures were poured immediately into 9 centimeter (cm) diameter petri dishes. Two replicate plates were used for each treatment. Each plate was inoculated with a 7 mm diameter plug taken from the growing edge of a 5 day old culture of B. cinerea on potato dextrose agar. […] Results of the testing for fungicidal activity against the above named fungi are set forth below in Table 3 as Pythium EC50 (ppm), Botrytis EC50 (ppm) and Venturia MIC (ppm), respectively.

Monilinia fructicol = experiment: microbe, parasite or virus in culture; type: cell-based; conditions: 72 h, 3 days at room temperature, read-out: MON percent inhibition of fungal growth
Plasmopara viticola = experiment: Downy Mildew of Grapes--Curative (GDC); conditions: in vivo
[2] = tested on: Erysiphe graminis (f. sp. tritici); experiment: Wheat Powdery Mildew (WPM); type: in vivo; conditions: 300 g/Ha; 8 to 10 days after inoculation; Pennol wheat
Protocol: Wheat Powdery Mildew (WPM) Erysiphe graminis (f. sp. tritici) was cultured on Pennol wheat seedlings in a controlled temperature room at 65° F. to 75° F. Mildew spores were shaken from the culture plants onto Pennol wheat seedlings which had been sprayed previously with the fungicide compound. The inoculated seedlings were kept in a controlled temperature room at 65° F. to 75° F. and subirrigated. […] The fungicidal activity of compound of Example 12 against the above discussed phytopathogenic fungi is set forth in Table 5 as percent disease control at an application rate of 300 g/Ha.

tomato plants = experiment: In vivo phytotoxic activity, foliar spray, tomato; parameters: key: +: indicating presence of a plant growth regulatory effect as compared to a control to which a solvent mixture (acetone/water/methanol) lacking the test compound was applied; 0: A zero indicates no apparent effect; conditions: foliar spray 2200 g/Ha, seven days after application
Protocol: (§1) The compounds of Examples 1 and 12 were tested in vivo for phytotoxic activity by applying the compounds to the foliage of cucumber, tomato, bean, lettuce and strawberry plants as a spray at a rate of 2200 g/Ha. The plants were evaluated seven days after spray application of the compounds.
(§2) Phototoxicity scores are set forth below in Table 6. The phytotoxicity scores use a symbol, "+", indicating presence of a plant growth regulatory effect as compared to a control to which a solvent mixture (acetone/water/methanol) lacking the test compound was applied. A zero indicates no apparent effect. Each score is a composite representing the mode value for three replicate plants.

bean plants = experiment: In vivo phytotoxic activity, foliar spray, bean; parameters: key: +: indicating presence of a plant growth regulatory effect as compared to a control to which a solvent mixture (acetone/water/methanol) lacking the test compound was applied; 0: A zero indicates no apparent effect; conditions: foliar spray 2200 g/Ha, seven days after application
Protocol: as §1, §2

SMILES: CCC(C)(NC(=O)c1cc(C)cc(C=NOC)c1)C(=O)CCl (stereo not shown) [Example 12, N-[3'-(1'-chloro-3'-methyl-2'-oxopentan)]-3-methoxyiminomethyl-5-methylbenzamide]
- IC50 at 168 h [1]: 0.38 µg/mL (≈ 1.17 µM)
- IC50 (Botrytis cinerea): 0.28 µg/mL (≈ 0.862 µM)
- inhibition at 25 ppm (Monilinia fructicol): 100%
- GDC percent disease control (Plasmopara viticola): 50%
- WPM percent disease control [2]: 75%
- phytotoxicity score, Tomato (tomato plants): 0
- phytotoxicity score, Bean (bean plants): 0
